Values quoted from earlier work in article PMC11997881, “Comprehensive Characterization of Bruton’s Tyrosine Kinase Inhibitor Specificity, Potency, and Biological Effects: Insights into Covalent and Noncovalent Mechanistic Signatures” (ACS Pharmacology & Translational Science, 2025).

What was measured:
BTK C481S [1] = conditions: literature values; read-out: average published IC50 for BTK C481S; cited from earlier work
BTK C481S [2] = conditions: average of literature values; read-out: average published Kd for BTK C481S; cited from earlier work

Row | Compound | IC50 (BTK C481S [1]) | Kd (BTK C481S [2])
1 | O=C(c1ccc(Oc2ccccc2)cc1Cl)c1c[nH]c2ncnc(N[C@@H]3CC[C@@H](CO)OC3)c12 [Nemtabrutinib] | 0.39 nM | 
2 | COc1ccc(F)cc1C(=O)NCc1ccc(-c2nn([C@@H](C)C(F)(F)F)c(N)c2C(N)=O)cc1 [Pirtobrutinib] |  | 2.6 nM
